Measured values: patent US20230183291A1, “ANTI-INFECTIVE BICYCLIC PEPTIDE LIGANDS” (priority 2020, published 2023)

Experiments:
[1] = molecular target: T1, Biotinylated Human ACE2, His, Avitag protein (Homo sapiens, UniProt Q9BYF1); test: Surface plasmon resonance (SPR) multiple cycle kinetics (MCK) direct binding; details: 25° C., 6.25 nM to 100 nM analyte, Langmuir (1:1) model
T1 construct: His; purchased ACROBiosystems AC2-H82E6
Procedure: 3. Affinity Determination by Surface Plasmon Resonance (SPR) Via Multiple Cycle Kinetics (MCK)
Binding of bicyclic peptides of the invention to Biotinylated Human ACE2, His, Avitag™ protein (ACROBiosystems, AC2-H82E6) was assessed by a MCK analysis. Experiments were performed at 25° C. on a Biacore T200 (Cytiva) running Biacore T200 Control software V2.0.1 and Evaluation software V3.0 (Cytiva). HBS-EP+(Cytiva) was used as running buffer as well as for ligand and analyte dilutions. Biotin CAPture reagent was loaded onto a Series S Sensor CAP Chip (Cytiva) followed by loading of biotinylated ACE2 at a flow rate of 2 μl/min. The surface was then allowed to stabilise.
MCK data was obtained using bicyclic peptides of the invention as analytes injected at a flow rate of 30 μl/min to minimise any potential mass transfer effects. A five point, two-fold dilution range from 6.25 nM to 100 nM of analyte was prepared in running buffer. For each concentration, the association phases were monitored for 250 seconds and the dissociation phase was measured for 450 seconds. Regeneration of the sensor chip surface was conducted between cycles using the CAP Chip standard regeneration buffer (Cytiva). Multiple repeats of a blank and of Bicycle were programmed into the kinetic run in order to check the stability of both the surface and analyte over the kinetic cycles. […]

[2] = molecular target: T1, Biotinylated Human ACE2, His, Avitag protein; test: Surface plasmon resonance (SPR) single cycle kinetics (SCK) direct binding; details: 25° C., Langmuir (1:1) model
Procedure: 2. Affinity Determination by Surface Plasmon Resonance (SPR) Via Single Cycle Kinetics (SCK)
Binding of bicyclic peptides of the invention to Biotinylated Human ACE2, His, Avitag™ protein (ACROBiosystems, AC2-H82E6) was assessed by a SCK analysis. Experiments were performed at 25° C. on a Biacore T200 (Cytiva) running Biacore T200 Control software V2.0.1 and Evaluation software V3.0 (Cytiva). HBS-EP+ (Cytiva) was used as running buffer as well as for ligand and analyte dilutions. Biotin CAPture reagent was loaded onto a Series S Sensor CAP Chip (Cytiva) followed by loading of the ACE2 protein at a flow rate of 2 μl/min. The surface was then allowed to stabilise.
SCK data was obtained using bicyclic peptides of the invention as analytes injected at a flow rate of 30 μl/min to minimise any potential mass transfer effects. A minimum four point 2-fold dilution of analyte based on the affinity of the bicyclic peptides of the invention in running buffer was used without regeneration between each concentration. The association phases were monitored for 100 seconds for each of the four injections of increasing concentrations of analyte and a single dissociation phase was measured for 400 seconds following the last injection of analyte. Regeneration of the sensor chip surface was conducted using the CAP Chip standard regeneration buffer (Cytiva).
The signal from the reference channel Fc1 (no ACE2 captured) was subtracted from that of Fc2, Fc3 and Fc4 to correct for bulk effect and differences in non-specific binding to a reference surface. The signal from each blank run (Fc2-ACE2 captured but no antigen) was subtracted to correct for differences in surface stability. The double referenced sensorgrams were fitted with the Langmuir (1:1) binding model (Equation 1a below) where the closeness of fit of the data to the model is evaluated using the Chi square value which describes the deviation between the experimental and fitted (observed and expected) curves (Equation 1b below).

T1 sequence (Q9BYF1 18-740 limits assumed): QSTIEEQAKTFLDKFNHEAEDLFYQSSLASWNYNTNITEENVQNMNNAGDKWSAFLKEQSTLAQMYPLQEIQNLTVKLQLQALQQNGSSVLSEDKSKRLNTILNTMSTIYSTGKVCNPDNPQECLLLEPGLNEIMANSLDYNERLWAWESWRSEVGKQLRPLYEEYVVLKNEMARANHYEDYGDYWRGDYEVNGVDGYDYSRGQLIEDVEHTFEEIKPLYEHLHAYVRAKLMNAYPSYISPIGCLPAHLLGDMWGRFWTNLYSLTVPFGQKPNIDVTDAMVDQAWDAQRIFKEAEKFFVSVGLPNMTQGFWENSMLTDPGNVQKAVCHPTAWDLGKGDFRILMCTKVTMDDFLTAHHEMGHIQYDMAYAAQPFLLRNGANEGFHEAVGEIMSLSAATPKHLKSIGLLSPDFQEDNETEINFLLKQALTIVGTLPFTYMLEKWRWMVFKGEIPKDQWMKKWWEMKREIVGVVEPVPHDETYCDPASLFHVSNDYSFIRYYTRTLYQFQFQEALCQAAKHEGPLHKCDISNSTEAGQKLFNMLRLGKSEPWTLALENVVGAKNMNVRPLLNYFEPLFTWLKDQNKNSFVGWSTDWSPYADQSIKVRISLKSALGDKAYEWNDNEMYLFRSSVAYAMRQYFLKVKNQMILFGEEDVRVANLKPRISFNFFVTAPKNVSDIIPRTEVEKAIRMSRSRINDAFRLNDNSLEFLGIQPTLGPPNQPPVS

| Substance | Geometric Mean KD (nM) [1] | Geometric Mean KD (nM) [2] |
| --- | --- | --- |
| CiNAVLCiiSWA[HArg][HyP]NSFCiii cyclised with TATA [BCY19024, Ac-(SEQ ID NO: 56)] | No sig. binding at top conc. tested |  |
| CiNAVLCiiSWA[HArg][dA]NSFCiii cyclised with TATA [BCY18256, Ac-(SEQ ID NO: 45)] |  | No sig. binding at top conc. tested |
| CiNDVLCiiSWA[HArg]ANSFCiii cyclised with TATA [BCY18659, Ac-(SEQ ID NO: 54)] |  | No sig. binding at top conc. tested |
| CiNEVLCiiSWA[HArg]ANSFCiii cyclised with TATA [BCY18783, Ac-(SEQ ID NO: 55)] |  | No sig. binding at top conc. tested |
